The values below come from PMC7193450 (Asian Journal of Pharmaceutical Sciences, 2018).

For one data set, the system named is rat kidney slices. Kind of data set: In vitro uptake in rat kidney slices. The class given is in vitro ADME. Particulars: for Uptake in rat kidney slices at 37 °C compared with 4 °C: 100 µM; for Effect on the uptake of cilastatin in rat kidney slices / Effect on the uptake of imipenem in rat kidney slices: inhibitor 200 µM; for Effect on the uptake of cilastatin in rat kidney slices: cilastatin 100 µM; for Effect on the uptake of imipenem in rat kidney slices: imipenem 100 µM.

The next data set concerns the target T1, OAT3 (Homo sapiens, UniProt Q8TCC7).
T1 sequence (Q8TCC7 1-542): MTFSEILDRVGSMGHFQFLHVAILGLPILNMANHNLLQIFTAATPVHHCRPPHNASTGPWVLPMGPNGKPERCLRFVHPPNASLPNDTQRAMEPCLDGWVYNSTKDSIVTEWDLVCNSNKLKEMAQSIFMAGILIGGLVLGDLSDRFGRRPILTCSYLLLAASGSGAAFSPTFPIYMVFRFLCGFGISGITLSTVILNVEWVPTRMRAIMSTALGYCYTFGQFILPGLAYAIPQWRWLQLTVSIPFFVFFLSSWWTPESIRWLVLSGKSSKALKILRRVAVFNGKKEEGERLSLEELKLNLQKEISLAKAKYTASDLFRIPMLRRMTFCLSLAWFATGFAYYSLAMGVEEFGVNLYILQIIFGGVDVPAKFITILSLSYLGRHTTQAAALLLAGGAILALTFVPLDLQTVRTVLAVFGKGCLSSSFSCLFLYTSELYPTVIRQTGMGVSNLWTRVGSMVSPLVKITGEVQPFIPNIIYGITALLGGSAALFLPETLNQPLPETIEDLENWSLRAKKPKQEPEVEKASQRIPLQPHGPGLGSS
Kind of data set: In vitro transporter uptake assay in hOAT3-HEK293 cells. Type of data set: in vitro ADME. The conditions noted are these: human, HEK293 cells transfected with human OAT3 (hOAT3-HEK293), pH 7.4.

The target in another data set is T2, human OAT3 (hOAT3) (Homo sapiens, UniProt Q8TCC7).
T2 sequence (Q8TCC7 1-542): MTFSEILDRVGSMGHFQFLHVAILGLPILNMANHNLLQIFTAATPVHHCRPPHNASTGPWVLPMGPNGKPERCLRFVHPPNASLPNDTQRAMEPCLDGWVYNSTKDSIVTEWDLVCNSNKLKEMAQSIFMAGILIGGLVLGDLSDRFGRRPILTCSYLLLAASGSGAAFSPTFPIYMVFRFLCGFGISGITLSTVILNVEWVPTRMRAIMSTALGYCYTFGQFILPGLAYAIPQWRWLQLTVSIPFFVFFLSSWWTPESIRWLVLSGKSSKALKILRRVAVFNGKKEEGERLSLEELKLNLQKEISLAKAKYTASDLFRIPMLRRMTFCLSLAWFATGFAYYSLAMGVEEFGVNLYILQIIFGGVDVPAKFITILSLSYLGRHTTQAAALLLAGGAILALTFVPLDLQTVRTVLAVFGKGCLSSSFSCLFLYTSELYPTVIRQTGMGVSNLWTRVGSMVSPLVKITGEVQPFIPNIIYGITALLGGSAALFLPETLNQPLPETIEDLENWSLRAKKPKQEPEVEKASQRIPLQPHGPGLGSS
Described as above. The class given is in vitro ADME. Particulars: for Uptake in hOAT3-HEK293 cells compared with mock cells: 100 µM.

A further data set addresses T3, OAT1 (Homo sapiens, UniProt Q4U2R8).
T3 sequence (Q4U2R8 1-563): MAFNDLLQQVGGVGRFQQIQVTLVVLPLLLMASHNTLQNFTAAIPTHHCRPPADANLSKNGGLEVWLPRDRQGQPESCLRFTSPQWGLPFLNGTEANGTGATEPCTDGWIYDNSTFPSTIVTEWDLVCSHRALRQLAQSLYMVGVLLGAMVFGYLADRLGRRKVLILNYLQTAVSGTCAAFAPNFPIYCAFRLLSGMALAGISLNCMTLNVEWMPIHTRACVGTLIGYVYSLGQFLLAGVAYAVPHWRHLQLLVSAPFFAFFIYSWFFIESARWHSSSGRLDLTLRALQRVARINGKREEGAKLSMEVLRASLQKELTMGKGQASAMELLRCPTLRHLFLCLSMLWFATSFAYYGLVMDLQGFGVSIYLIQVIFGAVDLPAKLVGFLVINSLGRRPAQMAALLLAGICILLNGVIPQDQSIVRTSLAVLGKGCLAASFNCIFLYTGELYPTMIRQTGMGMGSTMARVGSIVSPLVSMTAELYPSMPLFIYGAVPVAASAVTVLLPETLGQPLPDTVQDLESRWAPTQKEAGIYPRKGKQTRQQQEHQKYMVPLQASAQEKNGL
Kind of data set: In vitro transporter uptake assay in hOAT1-HEK293 cells. Particulars: human, pH 7.4.

In another data set the target is T4, human OAT1 (hOAT1) (Homo sapiens, UniProt Q4U2R8).
T4 sequence (Q4U2R8 1-563): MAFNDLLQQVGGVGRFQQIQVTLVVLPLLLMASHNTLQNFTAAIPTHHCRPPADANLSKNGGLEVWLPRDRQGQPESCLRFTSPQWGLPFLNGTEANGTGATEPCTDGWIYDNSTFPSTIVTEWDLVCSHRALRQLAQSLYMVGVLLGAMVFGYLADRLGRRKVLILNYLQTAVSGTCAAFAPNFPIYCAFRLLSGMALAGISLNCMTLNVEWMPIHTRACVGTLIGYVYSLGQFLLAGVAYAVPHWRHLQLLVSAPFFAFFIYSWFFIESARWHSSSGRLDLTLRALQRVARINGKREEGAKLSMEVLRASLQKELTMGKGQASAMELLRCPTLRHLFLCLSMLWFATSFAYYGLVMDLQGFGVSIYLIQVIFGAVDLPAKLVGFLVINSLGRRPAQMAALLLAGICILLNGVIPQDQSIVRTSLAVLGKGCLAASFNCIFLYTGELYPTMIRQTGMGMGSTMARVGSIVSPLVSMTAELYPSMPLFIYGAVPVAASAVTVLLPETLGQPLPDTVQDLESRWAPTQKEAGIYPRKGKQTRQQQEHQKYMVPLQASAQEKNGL
Described as above.

A short description of data set [1]: Pharmacokinetic interaction in vivo in rats. Particulars: rat; for AUC(0-inf) / C0 / clearance / half-life: Wistar, plasma, iv; for AUC(0-inf) / C0 / clearance / half-life / Cumulative urinary excretion over 8 h, compared with alone group: 45 mg/kg; for AUC(0-inf): AUC0→∞; for clearance: CLP; for half-life: T1/2β; for Cumulative urinary excretion over 8 h, compared with alone group: with probenecid 100 mg/kg.

Substrate in data set [2]: CC1(C)C[C@@H]1C(=O)N/C(=C\CCCCSC[C@H](N)C(=O)O)C(=O)O
Nature of the data set: cells, lysate or membranes named. The conditions noted are these: other: hOAT3-HEK293 cells, alone, 1 min uptake, 0–2000 µM; pH 7.4; 37.0 °C.

[3] abbreviates: imipenem 100 µM, cilastatin 0–2000 µM, Eadie–Hofstee plot.
The mark [4] stands for this setting: of imipenem, i.v., imipenem + cilastatin, 45 mg/kg for both.
[5] abbreviates: C0, rat, single administration (alone).
Where [6] appears, read: of cilastatin, i.v., cilastatin + imipenem, 45 mg/kg for both.

Consider `C[C@@H](O)[C@H]1C(=O)N2C(C(=O)O)=C(SCCN=CN)C[C@H]12` [Imipenem], for which the “Uptake in rat kidney slices at 37 °C compared with 4 °C” value in the data set on rat kidney slices is listed as “significantly higher”. The Michaelis constant (Km) (in general, the concentration of substrate that gives half-maximal velocity) at 1 min on OAT3 stood at 759 ± 62 µM; on OAT1, 631 ± 30 µM. Moreover, on human OAT3 (hOAT3), the “Uptake in hOAT3-HEK293 cells compared with mock cells” value is given as “significantly higher”. Further, the Vmax worked out at 0.329 ± 0.036 nmol/mg protein/min on human OAT3 (hOAT3) (hOAT3, alone); 0.329 ± 0.036 nmol/mg protein/1 min on human OAT3 (hOAT3) (hOAT3-HEK293 cells, alone, 1 min uptake, 0–2000 µM); 0.223 ± 0.011 nmol/mg protein/min at human OAT1 (hOAT1) (hOAT1, alone); 0.223 ± 0.011 nmol/mg protein/1 min at human OAT1 (hOAT1) (hOAT1-HEK293 cells, alone, 1 min uptake, 0–2000 µM). The “Inhibitory type on the uptake of cilastatin in hOAT3-HEK293 cells” value on human OAT3 (hOAT3) (setting [3]) was “competitive”. Moreover, on human OAT1 (hOAT1) (100 µM), the “Uptake in hOAT1-HEK293 cells compared with mock cells” value is listed as “significantly higher”. Further, the “Inhibitory type on the uptake of cilastatin in hOAT1-HEK293 cells” value on human OAT1 (hOAT1) (setting [3]) is on record as “competitive”. In addition, the AUC(0-inf) – broadly, total exposure, with the tail of the curve extrapolated – in data set [1] (setting [4]) is 92400 ng·h/mL; in data set [1] (single administration (alone)), 34800 ng·h/mL. Moreover, the C0 in data set [1] (C0, of imipenem, i.v., imipenem + cilastatin, 45 mg/kg for both) was 187 ± 13.5 µg/mL; in data set [1] (setting [5]) it was 129 ± 2.6 µg/mL. Besides, the clearance (in general, the rate of elimination divided by the concentration) is 8.1 ± 0.4 mL/min/kg in data set [1] (setting [4]) and 21.6 ± 0.4 mL/min/kg in data set [1] (single administration (alone)). The half-life (usually the time in which the quantity being followed falls by half) in data set [1] (setting [4]) was determined as 62 ± 1.4 min; in data set [1] (single administration (alone)) it was 18.5 ± 2.8 min. Also, the “Cumulative urinary excretion over 8 h, compared with alone group” value in data set [1] (i.v.) was “significantly decreased”.

Turning to `CCCN(CCC)S(=O)(=O)c1ccc(C(=O)O)cc1` [probenecid, Probenecid], in the data set on rat kidney slices, the “Effect on the uptake of cilastatin in rat kidney slices” value (“Effect on the uptake of cilastatin” for short) was “inhibited” and the “Effect on the uptake of imipenem in rat kidney slices” value (shortened to “Effect on the uptake of imipenem”) is on record as “inhibited”.

For `CC1(C)C[C@@H]1C(=O)N/C(=C\CCCCSC[C@H](N)C(=O)O)C(=O)O` [Cilastatin], the “Uptake in rat kidney slices at 37 °C compared with 4 °C” value with rat kidney slices was “significantly higher”. In addition, on human OAT3 (hOAT3), the “Uptake in hOAT3-HEK293 cells compared with mock cells” value was “significantly higher”. The AUC(0-inf) in data set [1] (setting [6]) was 84700 ng·h/mL; in data set [1] (single administration (alone)), 56500 ng·h/mL. In addition, the C0 in data set [1] (C0, of cilastatin, i.v., cilastatin + imipenem, 45 mg/kg for both) is 175 ± 11.1 µg/mL; in data set [1] (setting [5]) it was 156 ± 3.6 µg/mL. In addition, the clearance in data set [1] (setting [6]) turned out to be 8.9 ± 0.3 mL/min/kg; in data set [1] (single administration (alone)), 13.3 ± 0.1 mL/min/kg. Moreover, the half-life in data set [1] (setting [6]) was 28.6 ± 4 min; in data set [1] (single administration (alone)) it was 19.7 ± 0.8 min. For the same molecule, the “Cumulative urinary excretion over 8 h, compared with alone group” value in data set [1] (i.v.) was “significantly decreased”. The “Cumulative urinary excretion of cilastatin, compared with cilastatin alone group” value in data set [1] (i.v., co-administered with imipenem, 45 mg/kg for both) is “decreased significantly”.

Take `CC1(C)S[C@@H]2[C@H](NC(=O)Cc3ccccc3)C(=O)N2[C@H]1C(=O)O` [PCG, benzylpenicillin]: in the data set on rat kidney slices, the “Effect on the uptake of cilastatin” value was “inhibited” and the “Effect on the uptake of imipenem” value is listed as “inhibited”. In addition, the “Effect on uptake of imipenem and cilastatin in hOAT3-HEK293 cells” value on human OAT3 (hOAT3) (PCG 200 µM, imipenem 100 µM, cilastatin 100 µM) is reported as “significantly inhibited”.

For `Nc1ccc(C(=O)NCC(=O)O)cc1` [PAH, p-aminohippurate], in the data set with rat kidney slices, the “Effect on the uptake of cilastatin” value is recorded as “inhibited” and the “Effect on the uptake of imipenem” value is “inhibited”.

`CC[N+](CC)(CC)CC` [TEA, tetraethyl ammonium]: in the data set on rat kidney slices, the “Effect on the uptake of cilastatin” value is “not TEA inhibited” and the “Effect on the uptake of imipenem” value is “not TEA inhibited”.

B1: human OAT3 (hOAT3) (Homo sapiens) (protein)
chain: MTFSEILDRVGSMGHFQFLHVAILGLPILNMANHNLLQIFTAATPVHHCRPPHNASTGPWVLPMGPNGKPERCLRFVHPPNASLPNDTQRAMEPCLDGWVYNSTKDSIVTEWDLVCNSNKLKEMAQSIFMAGILIGGLVLGDLSDRFGRRPILTCSYLLLAASGSGAAFSPTFPIYMVFRFLCGFGISGITLSTVILNVEWVPTRMRAIMSTALGYCYTFGQFILPGLAYAIPQWRWLQLTVSIPFFVFFLSSWWTPESIRWLVLSGKSSKALKILRRVAVFNGKKEEGERLSLEELKLNLQKEISLAKAKYTASDLFRIPMLRRMTFCLSLAWFATGFAYYSLAMGVEEFGVNLYILQIIFGGVDVPAKFITILSLSYLGRHTTQAAALLLAGGAILALTFVPLDLQTVRTVLAVFGKGCLSSSFSCLFLYTSELYPTVIRQTGMGVSNLWTRVGSMVSPLVKITGEVQPFIPNIIYGITALLGGSAALFLPETLNQPLPETIEDLENWSLRAKKPKQEPEVEKASQRIPLQPHGPGLGSS
Take B1: in data set [2], the Km was 238 ± 2 µM and the Vmax came to 0.000751 µmol/min/mg.
